Measurements reported in patent publication US20240067632A1, “WEE1 Degrading Compounds and Uses Thereof” (Bristol-Myers Squibb Company, priority 2022, published 2024).
Read-outs that look alike come from different tables or passages of the source.

Tests used:
WEE1 = molecular target: T1, WEE1 (Homo sapiens, UniProt P30291+Q96SW2); experiment: WEE1-ePL degradation assay (LentiX-WEE1-ePL-GSPT1-ND cells, InCELL Hunter luminescence, 4 h); type: cell-based; details: 293T-LentiX WEE1-ePL cells; for DC50: read-out: 293T-LentiX WEE1-ePL Degradation 4 hr (EC50)
T1 construct: C-terminal ePL-tagged (DiscoverX, Fremont, CA) full-length WEE1 expression construct; expressed in transfected cells; host or cells: LentiX-HEK293T (Invitrogen), lentiviral transduction; co-expressing GSPT1-GN (G576N, lacking the first 158 amino acids)
Method in brief: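 Degradation EC50 was fitted by a four-parameter logistic model, with the upper limit taken from DMSO wells. Luminescence was read with InCELL Hunter reagent after 30 min at room temperature, following a 4 h, 37° C exposure of 2500 cells/well. Cells were LentiX-HEK293T carrying ePL-tagged full-length WEE1, dosed in 10 points (3-fold) from 1 or 10 uM.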

MKN45 cells = experiment: MKN45 cell proliferation assay (Cell-Titer-Glo, 120 h); type: cell-based; details: for EC50: Homo sapiens, MKN-45, 120 h, Cell-Titer-Glo, read-out: MKN45 Cell Prolif. 120 hr (EC50); for MKN45 Cell Prolif. 120 hr (Ymin-Obs): minimal percent of DMSO control observed in the concentrations tested
Method in brief: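 Cells seeded at 400/well onto pre-printed 10-point half-log dilutions (top 1 or 10 uM, 0.1% DMSO final), in triplicate, and grown 120 h at 37 C. Viability by Cell-Titer-Glo luminescence, blank-subtracted and normalised to DMSO; EC50 from four-parameter logistic fit, with observed minimal % of control recorded as Ymin-obs.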

[1] = lower limit of the fit (0 = luciferase inhibitor, Ymax = DMSO control)
[2] = lower limit of the fit (Ymin=0 luciferase inhibitor, Ymax DMSO control)

Row | SMILES | 293T-LentiX WEE1-ePL Degradation 4 hr (Ymin) (WEE1; [1]) | DC50 (WEE1) [nM] | EC50 (MKN45 cells; growth inhibition) [nM] | MKN45 Cell Prolif. 120 hr (Ymin-Obs) (MKN45 cells) | 293T-LentiX WEE1-ePL Degradation 4 hr (Ymin) (WEE1; [2]) | EC50 (MKN45 cells) [nM]
1 | O=C1CCC(N2Cc3cc(O[C@H]4CCN(Cc5ccc6nc([C@@H]7CC[C@@H](O)C7)ccc6c5)C4)ccc3C2=O)C(=O)N1 (stereo partly drawn) [3-(5-{[(3S)-1-({2-[(1R,3R)-3-hydroxycyclopentyl]quinolin-6-yl}methyl)pyrrolidin-3-yl]oxy}-1-oxo-2,3-dihydro-1H-isoindol-2-yl)piperidine-2,6-dione] | 31.5 | 2.6 | 1.38 | 8.2675 |  | 
2 | CO[C@@H]1CCC[C@@H](c2ccc3cc(CN4CC[C@H](Oc5ccc6c(c5)CN(C5CCC(=O)NC5=O)C6=O)C4)ccc3n2)C1 (stereo partly drawn) [3-(5-{[(3S)-1-({2-[(1R,3R)-3-methoxycyclohexyl]quinolin-6-yl}methyl)pyrrolidin-3-yl]oxy}-1-oxo-2,3-dihydro-1H-isoindol-2-yl)piperidine-2,6-dione] | 29 | 2.83 | 0.93 | 7.97 |  | 
3 | CO[C@@H]1CC[C@@H](c2ccc3cc(CN4CC[C@H](Oc5ccc6c(c5)CN(C5CCC(=O)NC5=O)C6=O)C4)ccc3n2)C1 (stereo partly drawn) [3-(5-{[(3S)-1-({2-[(1R,3R)-3-methoxycyclopentyl]quinolin-6-yl}methyl)pyrrolidin-3-yl]oxy}-1-oxo-2,3-dihydro-1H-isoindol-2-yl)piperidine-2,6-dione] | 30 | 4.74 | 1.95 | 7.45 |  | 
4 | COC[C@H]1CC[C@@H](c2ccc3cc(CN4CC[C@H](Oc5ccc6c(c5)CN(C5CCC(=O)NC5=O)C6=O)C4)ccc3n2)C1 (stereo partly drawn) [3-(5-{[(3S)-1-({2-[(1R,3S)-3-(methoxymethyl)cyclopentyl]quinolin-6-yl}methyl)pyrrolidin-3-yl]oxy}-1-oxo-2,3-dihydro-1H-isoindol-2-yl)piperidine-2,6-dione] |  | 3.12 |  | 8.888 | 34.11 | 3.09
5 | O=C1CCC(N2Cc3cc(O[C@H]4CCN(Cc5ccc6nc([C@@H]7CC[C@H](O)C7)ccc6c5)C4)ccc3C2=O)C(=O)N1 (stereo partly drawn) [3-(5-{[(3S)-1-({2-[(1R,3S)-3-hydroxycyclopentyl]quinolin-6-yl}methyl)pyrrolidin-3-yl]oxy}-1-oxo-2,3-dihydro-1H-isoindol-2-yl)piperidine-2,6-dione] | 32 | 3.33 | 0.655 | 7.585 |  | 
6 | CO[C@H]1CCC[C@@H](c2ccc3cc(CN4CC[C@H](Oc5ccc6c(c5)CN(C5CCC(=O)NC5=O)C6=O)C4)ccc3n2)C1 (stereo partly drawn) [3-(5-{[(3S)-1-({2-[(1R,3S)-3-methoxycyclohexyl]quinolin-6-yl}methyl)pyrrolidin-3-yl]oxy}-1-oxo-2,3-dihydro-1H-isoindol-2-yl)piperidine-2,6-dione] | 27.5 | 3.49 | 1.96 | 7.623 |  | 
7 | CO[C@H]1CC[C@@H](c2ccc3cc(CN4CC[C@H](Oc5ccc6c(c5)CN(C5CCC(=O)NC5=O)C6=O)C4)ccc3n2)C1 (stereo partly drawn) [3-(5-{[(3S)-1-({2-[(1R,3S)-3-methoxycyclopentyl]quinolin-6-yl}methyl)pyrrolidin-3-yl]oxy}-1-oxo-2,3-dihydro-1H-isoindol-2-yl)piperidine-2,6-dione] | 28.33 | 3.2 | 0.741 | 7.233 |  | 
8 | O=C1CCC(N2Cc3cc(O[C@H]4CCN(Cc5ccc6nc(N7C[C@H]8C[C@@H]7CO8)ncc6c5)C4)ccc3C2=O)C(=O)N1 (stereo partly drawn) [3-(5-{[(3S)-1-({2-[(1R,4R)-2-oxa-5-azabicyclo[2.2.1]heptan-5-yl]quinazolin-6-yl}methyl)pyrrolidin-3-yl]oxy}-1-oxo-2,3-dihydro-1H-isoindol-2-yl)piperidine-2,6-dione] | 39 | 80.1 | 76.6 | 16.57 |  | 
9 | O=C1CCC(N2Cc3cc(O[C@H]4CCN(Cc5ccc6nc(N7C[C@H]8C[C@@H]7CO8)ccc6c5)C4)ccc3C2=O)C(=O)N1 (stereo partly drawn) [3-(5-{[(3S)-1-({2-[(1R,4R)-2-oxa-5-azabicyclo[2.2.1]heptan-5-yl]quinolin-6-yl}methyl)pyrrolidin-3-yl]oxy}-1-oxo-2,3-dihydro-1H-isoindol-2-yl)piperidine-2,6-dione] | 33 | 5.67 | 6.19 | 9.745 |  | 
10 | O=C1CCC(N2Cc3cc(O[C@H]4CCN(Cc5ccc6nc(N7[C@@H]8COC[C@H]7C8)ncc6c5)C4)ccc3C2=O)C(=O)N1 (stereo partly drawn) [3-(5-{[(3S)-1-({2-[(1R,5S)-3-oxa-6-azabicyclo[3.1.1]heptan-6-yl]quinazolin-6-yl}methyl)pyrrolidin-3-yl]oxy}-1-oxo-2,3-dihydro-1H-isoindol-2-yl)piperidine-2,6-dione] | 38 | 117 | 17 | 10.76 |  | 
11 | O=C1CCC(N2Cc3cc(O[C@H]4CCN(Cc5ccc6nc(N7[C@@H]8COC[C@H]7C8)ccc6c5)C4)ccc3C2=O)C(=O)N1 (stereo partly drawn) [3-(5-{[(3S)-1-({2-[(1R,5S)-3-oxa-6-azabicyclo[3.1.1]heptan-6-yl]quinolin-6-yl}methyl)pyrrolidin-3-yl]oxy}-1-oxo-2,3-dihydro-1H-isoindol-2-yl)piperidine-2,6-dione] | 37 | 8.62 | 11.2 | 9.645 |  | 
12 | O=C1CCC(N2Cc3cc(O[C@H]4CCN(Cc5ccc6nc(N7[C@@H]8CC[C@H]7COC8)ncc6c5)C4)ccc3C2=O)C(=O)N1 (stereo partly drawn) [3-(5-{[(3S)-1-({2-[(1R,5S)-3-oxa-8-azabicyclo[3.2.1]octan-8-yl]quinazolin-6-yl}methyl)pyrrolidin-3-yl]oxy}-1-oxo-2,3-dihydro-1H-isoindol-2-yl)piperidine-2,6-dione] | 33 | 101 | 24.9 | 8.88 |  | 
13 | O=C1CCC(N2Cc3cc(O[C@H]4CCN(Cc5ccc6nc(N7[C@@H]8CC[C@H]7COC8)ccc6c5)C4)ccc3C2=O)C(=O)N1 (stereo partly drawn) [3-(5-{[(3S)-1-({2-[(1R,5S)-3-oxa-8-azabicyclo[3.2.1]octan-8-yl]quinolin-6-yl}methyl)pyrrolidin-3-yl]oxy}-1-oxo-2,3-dihydro-1H-isoindol-2-yl)piperidine-2,6-dione] | 28 | 4.47 | 9.72 | 11.965 |  | 
14 | O=C1CCC(N2Cc3cc(O[C@H]4CCN(Cc5ccc6nc(N7C[C@H]8C[C@@H](C7)O8)ncc6c5)C4)ccc3C2=O)C(=O)N1 (stereo partly drawn) [3-(5-{[(3S)-1-({2-[(1R,5S)-6-oxa-3-azabicyclo[3.1.1]heptan-3-yl]quinazolin-6-yl}methyl)pyrrolidin-3-yl]oxy}-1-oxo-2,3-dihydro-1H-isoindol-2-yl)piperidine-2,6-dione] | 39 | 20.2 | 16.4 | 13.42 |  | 
15 | O=C1CCC(N2Cc3cc(O[C@H]4CCN(Cc5ccc6nc(N7C[C@H]8C[C@@H](C7)O8)ccc6c5)C4)ccc3C2=O)C(=O)N1 (stereo partly drawn) [3-(5-{[(3S)-1-({2-[(1R,5S)-6-oxa-3-azabicyclo[3.1.1]heptan-3-yl]quinolin-6-yl}methyl)pyrrolidin-3-yl]oxy}-1-oxo-2,3-dihydro-1H-isoindol-2-yl)piperidine-2,6-dione] | 38 | 1.98 | 3.19 | 9.79 |  | 
16 | O=C1CCC(N2Cc3cc(O[C@H]4CCN(Cc5ccc6nc(N7C[C@H]8CC[C@@H](C7)O8)ncc6c5)C4)ccc3C2=O)C(=O)N1 (stereo partly drawn) [3-(5-{[(3S)-1-({2-[(1R,5S)-8-oxa-3-azabicyclo[3.2.1]octan-3-yl]quinazolin-6-yl}methyl)pyrrolidin-3-yl]oxy}-1-oxo-2,3-dihydro-1H-isoindol-2-yl)piperidine-2,6-dione] | 35 | 45.9 | 15.6 | 11.04 |  | 
17 | O=C1CCC(N2Cc3cc(O[C@H]4CCN(Cc5ccc6nc(N7C[C@H]8CC[C@@H](C7)O8)ccc6c5)C4)ccc3C2=O)C(=O)N1 (stereo partly drawn) [3-(5-{[(3S)-1-({2-[(1R,5S)-8-oxa-3-azabicyclo[3.2.1]octan-3-yl]quinolin-6-yl}methyl)pyrrolidin-3-yl]oxy}-1-oxo-2,3-dihydro-1H-isoindol-2-yl)piperidine-2,6-dione] | 37 | 6.5 | 6.42 | 11.085 |  | 
18 | COC[C@@H]1CCC[C@@H]1c1ccc2cc(CN3CC[C@H](Oc4ccc5c(c4)CN(C4CCC(=O)NC4=O)C5=O)C3)ccc2n1 (stereo partly drawn) [3-(5-{[(3S)-1-({2-[(1S,2R)-2-(methoxymethyl)cyclopentyl]quinolin-6-yl}methyl)pyrrolidin-3-yl]oxy}-1-oxo-2,3-dihydro-1H-isoindol-2-yl)piperidine-2,6-dione] |  | 0.334 |  | 11.34 | 26.36 | 5.76
